Results on three compounds are retold here after ChEMBL document CHEMBL1148168, “The structures of aplysinamisines I, II, and III; new bromotyrosine-derived alkaloids from the Caribbean sponge Aplysina cauliformis” (J Nat Prod, 1993).

The structures appear in SMILES notation. Values after ≈ are worked out from the molar mass of the structure shown. Active and inactive are the calls of the source. No cut-off for these calls is given here.

One experiment concerns Staphylococcus aureus. The experiment is described as follows: Antimicrobial activity against Staphylococcus aureus at 50 to 100 ug/disk. The experiment is classed as functional, organism-based.
The test system of a further experiment is Pseudomonas aeruginosa. As to the kind of experiment: Antimicrobial activity against Pseudomonas aeruginosa at 50 to 100 ug/disk. The experiment is classed as functional, organism-based.
A further experiment has as its system Escherichia coli. As to the kind of experiment: Antimicrobial activity against Escherichia coli at 50 to 100 ug/disk. The experiment is classed as functional, organism-based.
The test system of a further experiment is MCF7. The experiment is described as follows: Cytotoxicity against human MCF7 cells. The experiment is classed as functional, cell-based.
For a further experiment, the system named is CCRF-CEM. The experiment is described as follows: Cytotoxicity against human CCRF-CEM cells. The class given is functional, cell-based.
Another experiment relates to HCT-116. As to the kind of experiment: Cytotoxicity against human HCT116 cells. The experiment is classed as functional, cell-based.

Usually IC50 stands for the midpoint of a concentration-inhibition curve. As to `COC1=C(Br)[C@H](O)[C@@]2(C=C1Br)CC(C(=O)NCCCCCNC(=N)N)=NO2` [APLYSINAMISINE II], the result in the experiment on Staphylococcus aureus, in the experiment with Pseudomonas aeruginosa and in the experiment with Escherichia coli was Active. In addition, the IC50 in the experiment with MCF7 was more than 50 µg/mL; in the experiment on CCRF-CEM it was more than 50 µg/mL; in the experiment on HCT-116 it was 10 µg/mL (≈ 19.6 µM).

Regarding `COC1=C(Br)[C@H](O)[C@@]2(C=C1Br)CC(C(=O)NC/C=C\c1c[nH]c(N)n1)=NO2` [APLYSINAMISINE I], the outcome in the experiment with Staphylococcus aureus, in the experiment with Pseudomonas aeruginosa and in the experiment with Escherichia coli was Active. Further, the concentration for half-maximal inhibition (IC50) in the experiment on MCF7 and in the experiment with CCRF-CEM was more than 50 µg/mL in each case.

For the compound `COC1=C(Br)[C@H](O)[C@@]2(C=C1Br)CC(C(=O)NCCCOc1c(Br)cc(C(O)CNC(C)=O)cc1Br)=NO2` (some centres not stated) [APLYSINAMISINE III], the result with Staphylococcus aureus, in the experiment on Pseudomonas aeruginosa and in the experiment with Escherichia coli was Active. Also, the results for the IC50 in the experiment on MCF7, with CCRF-CEM and in the experiment with HCT-116 were 30 µg/mL (≈ 38.7 µM), 6 µg/mL (≈ 7.74 µM) and 10 µg/mL (≈ 12.9 µM), respectively.
